Reference: patent publication US20220152082A1, “Methods for Cancer Diagnosis, Prognosis or Treatment” (AnPac Bio-Medical Science Co., Ltd., priority 2019, published 2022)

Legend:
NF-κB = test: Western blot of p65 and IκBα phosphorylation, T47D; type: cell-based, human; details: 10 μM, 8 days
LINC00472 [1] = test: qRT-PCR of LINC00472 expression, T47D; type: cell-based, human; details: 10 μM, 8 days
Description: Total RNA was extracted from fresh-frozen tumor samples and cultured tumor cells using the […] kit (Qiagen). RNA samples were reverse-transcribed (RT) to cDNA using the cDNA Reverse Transcription kit (LifeTech), and analyzed for LINC00472 expression with real-time PCR (qPCR). Breast cancer cells were transfected with Lincode Human LINC00472 (79940) siRNA-SMART pool (D-001320-10-05) or Lincode Non-targeting Pool (D-001320-10-05), negative control from Dharmacon, following the manufacturer's protocol for Lipofectamine RNAiMAX (Thermo Fisher Scientific). The method of transfection was known in the art. Cell lysates were prepared for analysis after 36 hours of incubation of the transfected cells. […] After eight days of culture, cells were collected, and total RNA and proteins were extracted for qRT-PCR analysis of LINC00472 and western blot of ERα and NF-κB, respectively.

LINC00472 [2] = test: TNF-α treatment, LINC00472 expression; type: cell-based; details: breast cancer cells, TNF-α 10 ng/ml, 24 hours
Method: Total RNA was extracted from fresh-frozen tumor samples and cultured tumor cells using the Allprep DNA/RNA kit (Qiagen). RNA samples were reverse-transcribed (RT) to cDNA using the cDNA Reverse Transcription kit (LifeTech), and analyzed for LINC00472 expression with real-time PCR (qPCR).
TNF-α (Sigma-Aldrich), diluted in the culture medium immediately before experiment, was added to cultured cells with a final concentration of 10 ng/ml. The cells were incubated for 24 hours before analysis. DMSO (Sigma-Aldrich) treated cells were used as control. Total RNA and proteins were extracted for analysis of LINC00472 expression and NF-κB activation.

| Molecule | phosphorylation of p65 and IκBα (NF-κB) | expression of LINC00472 (LINC00472 [1]) | expression of LINC00472 (LINC00472 [1]; listed as tamoxifen) | LINC00472 expression (LINC00472 [2]) |
| --- | --- | --- | --- | --- |
| CC/C(=C(\c1ccc(O)cc1)c1ccc(OCCN(C)C)cc1)c1ccccc1 [4-hydroxytamoxifen, 4-Hydroxytamoxifen] | increased | decreased | lowered |  |
| TNF-α |  |  |  | no effect |
